Measured values as given in patent US4726941A, “Acylated cyanamide composition for treating ethanol ingestion” (Regents of the University of Minnesota, priority 1986, dated 1988).
Like-named read-outs stand apart in the source and are kept apart here.

Assays:
AlDH [1] = test: Time course protocol (72 hour), oral: blood AcH after ethanol in rats; format: in vivo; conditions: rat, 1.0 mmol/kg po, FIG. 6
Protocol: FIG. 6 is a graphic depiction of the effectiveness of palmitoylcyanamide and N-benzoyl-L-leucylcyanamide, administered orally, in elevating blood AcH following ethanol administration in rats over a 72 hour time course.
(§1) 1. Drug Dose: 0.5 mmol/kg (ip); 1.0 mmol/kg (po)
(§2) 2. Animals: Male rats of Sprague-Dawley descent (BioLab, Inc., St. Paul, MN), weighing 176-200 g were used. Two animals were used for each drug administration protocol.
(§3) 3. Timing: Overnight fasted animals were administered the prodrug at zero time, ethanol (2 g/kg, ip) at 1, 4, 11, 23, 35, 47 and 71 hours and sacrificed 1 hour subsequent to each ethanol administration. Cyanamide treated animals (1.0 mmol/kg) served as positive control.
(§4) Blood AcH levels were measured 1 hour after ethanol (2 g/kg, ip) in treated and control animals essentially as described by Shirota et al., in J. Med Chem., 23, 669 (1980). The animal was stunned by a quick blow to the head and blood was immediately withdrawn by open chest cardiac puncture. Aliquots (0.2 ml) were placed in 20 ml serum vials containing 1.0 ml of 5 mM sodium azide (to minimize the artifactual generation of AcH from ethanol), and the vials immediately capped with a rubber septum, frozen on Dry Ice, and kept frozen at -20° C. until assayed. AcH was determined in duplicate by the head-space gas chromatographic procedure previously described by Nagasawa et al., in Life Sci., 20, 187 (1977), and quantitated using a standard curve based on standards with known concentrations of AcH.

AlDH [2] = test: Initial screen: elevation of blood acetaldehyde (AcH) after ethanol in rats, prodrug 1.0 mmol/kg ip; format: in vivo; conditions: rat; for potency in elevating ethanol-derived blood AcH (in words): 3 hours post-drug; for elevation of blood AcH over controls at 16 hours: ethanol 2 g/kg ip at 15 hours, sacrifice 16 hours post-drug; for duration of action / blood AcH at 16 hours (in words): 16 hours post-drug; for elevation of blood AcH over drug-free controls at 3 hours: ethanol 2 g/kg ip at 2 hours, sacrifice 3 hours post-drug
Protocol: Compounds 1-11 were evaluated in rats for their ability to elevate and maintain blood acetaldehyde (AcH) levels following ethanol administration employing the methodology outlined in Table I.
1. Drug Dose: 1.0 mmol/kg (ip)
2. Animals: Male rats of Sprague-Dawley descent (BioLab, Inc., St. Paul, MN), weighing 185-225 g were used. Four animals were used for each drug administration protocol.
3. Timing: Animals were fasted beginning at 7:00 or 8:00 AM. One group of rats were administered the prodrug at 5:00 PM (zero time) and ethanol (2 g/kg, ip) at 8:00 AM (15 hours), and the animals were sacrificed at 9:00 AM (16 hours). A second set of rats received the prodrug at 6:30 AM (zero time) and ethanol at 8:30 AM (2 hours) and the animals were sacrificed at 9:30 AM (3 hours). Cyanamide treated animals (1.0 mmol/kg) served as positive control. Blood AcH levels were determined as described hereinbelow.
as §4

AlDH [3] = test: Time course protocol (72 hour), ip: blood AcH after ethanol in rats; format: in vivo; conditions: rat; for duration of blood AcH elevation over 72-hour time course (in words) / time at which blood AcH elevation reached maximum: FIG. 5 (0.5 mmol/kg); for time at which blood AcH elevation reached maximum: ethanol 2 g/kg ip 1 hour before sacrifice
Protocol: FIG. 5 is a graphic depiction of the effectiveness of four of the compositions of the invention in elevating blood AcH following ethanol administration in rats over a 72 hour time course (0.5 mmol/kg i.p. dose).
as §1, §2, §3, §4

[4] = tested on: aldehyde dehydrogenase (AlDH); conditions: without enzymatic activation, cited from earlier work
[5] = tested on: aldehyde dehydrogenase (AlDH); conditions: clinical use, background statement; cited from earlier work
[6] = rat, within 6 hours; cited from earlier work
[7] = Stability of the purified compound on standing; format: physicochemical; conditions: clear colorless liquid, storage at 5° C.
Protocol: n-Butyryl chloride (3.2 g, 3.12 ml, 0.030 mol) in 50 ml of freshly distilled dry THF was added drop-wise to a suspension of sodium cyanamide (5.76 g, 0.090 mol) in 100 ml of freshly distilled dry THF at ice bath temperature. The reaction was allowed to proceed at room temperature for 24 hours and then the mixture evaporated to dryness in vacuo. The resulting yellow solid residue was dissolved in distilled water (50 ml) and the alkaline solution was adjusted to pH 6.5 with 10% HCl. The mixture was then extracted with ethyl acetate (2×50 ml). […] TLC: Rf =0.6 in EtOAC/petroleum ether/AcOH (50:100:1), detected by UV quenching and orange color with ferricyanide spray reagent; IR (neat, cm^-1) 3100-3250 (NH), 2860-2960 (alkyl), 2260 (C≡N), 1725 (C=0); NMR (Silanor C, δ from TMS) 8.2-8.5 (broad, NH), 2.3-2.6 (t, --CH2 --CH2 --C=O), 1.5-1.9 (sextet, CH3 --CH2 --CH2 --), 0.8-1.1 (t, CH3 --CH2 --); CI--MS (NH 3 : positive) m/z (rel. intensity) 147 (12.6, [(M+1)+2NH3 ]), 130 (100.0) [(M+1)+NH3 ], 105 (5.2) [(M+1)+2NH3 --H2 NCN]; CI--MS (NH3 : negative) m/z (rel. intensity) 111 (100.0) [M-1], 68 (2.0) [(M-1)--CH3 CH2 CH2 ], 41 (16.7) [(M-1)--CH3 CH2 CH=C=O].

CCCCCCCCCCCCCCCC(=O)NC#N [Compound 6, Palmitoylcyanamide]
time at which AcH levels once again increased (AlDH [1]): 24 h | time at which blood AcH fell back to control levels (AlDH [1]): around 36 hours | time of maximum AcH levels (AlDH [1]): 2 h | time of trough of AcH levels (AlDH [1]): 12 h | potency in elevating ethanol-derived blood AcH (in words) (AlDH [2]): almost as potent as cyanamide | elevation of blood AcH over controls at 16 hours (AlDH [2]): 100 fold | duration of blood AcH elevation over 72-hour time course (in words) (AlDH [3]): significantly elevated even at 48 hours | time at which blood AcH elevation reached maximum (AlDH [3]): around 5 hours

N#CNC(=O)C12CC3CC(CC(C3)C1)C2.N#CNC(=O)C12CC3CC(CC(C3)C1)C2 [Compound 4, 1-Adamantanecarbonyl Cyanamide (1-Adamantoylcyanamide)]
potency in elevating ethanol-derived blood AcH (in words) (AlDH [2]): very potent | duration of action / blood AcH at 16 hours (in words) (AlDH [2]): short acting

N#CNC(=O)CNC(=O)c1ccccc1.N#CNC(=O)CNC(=O)c1ccccc1 [Compound 10, N-Benzoylglycylcyanamide (Hippurylcyanamide)]
potency in elevating ethanol-derived blood AcH (in words) (AlDH [2]): less potent than N-benzoyl-L-leucylcyanamide (11) | duration of action / blood AcH at 16 hours (in words) (AlDH [2]): long-acting with significant levels of blood AcH present | duration of blood AcH elevation over 72-hour time course (in words) (AlDH [3]): failed to maintain elevated blood AcH past 12 hours

N#CNC(=O)c1ccccc1 [Compound 2, Benzoylcyanamide]
elevation of blood AcH over controls at 16 hours (AlDH [2]): 10 fold

CC(=O)NC#N.[Na] [Compound 1, Sodium Acetylcyanamide]
potency in elevating ethanol-derived blood AcH (in words) (AlDH [2]): much weaker than cyanamide | elevation of blood AcH over drug-free controls at 3 hours (AlDH [2]): 25 fold

N#CNC(=O)OCc1ccccc1.[Na] [Compound 8, N-Carbobenzoxycyanamide, Sodium Salt]
elevation of blood AcH over drug-free controls at 3 hours (AlDH [2]): 120 fold

CC(C)C[C@H](NC(=O)CNC(=O)OCc1ccccc1)C(=O)NC#N [Compound 12, N-Cbz-glycyl-L-leucylcyanamide]
potency in elevating ethanol-derived blood AcH (in words) (AlDH [2]): more potent than (9) | duration of action / blood AcH at 16 hours (in words) (AlDH [2]): did not maintain significantly elevated blood AcH level

N#CNC(=O)CNC(=O)OCc1ccccc1 [Compound 9, N-Carbobenzoxyglycylcyanamide]
duration of action / blood AcH at 16 hours (in words) (AlDH [2]): reduced to almost control levels | elevation of blood AcH over drug-free controls at 3 hours (AlDH [2]): more than 80 fold

CC(=O)NC#N [AC, acetylcyanamide]
AlDH inhibitory activity in vitro [4]: devoid of AlDH inhibitory activity in vitro

CC(C)(C)C(=O)NC#N [Compound 3, Pivaloylcyanamide]
potency in elevating ethanol-derived blood AcH (in words) (AlDH [2]): very potent | duration of action / blood AcH at 16 hours (in words) (AlDH [2]): short acting

[Ca+2].[N-]=C=[N-] [calcium carbimide]
duration of activity [5]: approximately 24 hours

CC(C)C[C@H](NC(=O)c1ccccc1)C(=O)NC#N [Compound 11, N-Benzoyl-L-leucylcyanamide]
time at which AcH levels once again increased (AlDH [1]): 24 h | time at which blood AcH fell back to control levels (AlDH [1]): around 36 hours | time of maximum AcH levels (AlDH [1]): 2 h | time of trough of AcH levels (AlDH [1]): 12 h | potency in elevating ethanol-derived blood AcH (in words) (AlDH [2]): elevated blood AcH levels | duration of action / blood AcH at 16 hours (in words) (AlDH [2]): long-acting with significant levels of blood AcH present | duration of blood AcH elevation over 72-hour time course (in words) (AlDH [3]): continued to maintain elevated blood AcH even at 72 hours | initial blood AcH level at 2 hours compared with cyanamide (AlDH [3]; FIG. 5, 2 hours): less than cyanamide

N#CNC(=O)[C@H](Cc1ccccc1)NC(=O)[C@@H]1CCC(=O)N1 [Compound 15, L-Pyroglutamyl-L-phenylalanylcyanamide]
potency in elevating ethanol-derived blood AcH (in words) (AlDH [2]): very potent inhibitor of AlDH in vivo | elevation of blood AcH over drug-free controls at 3 hours (AlDH [2]): more than 110 fold

CCCCCCCCCCCCCCCCCC(=O)NC#N [Compound 7, Stearoylcyanamide]
potency in elevating ethanol-derived blood AcH (in words) (AlDH [2]): almost as potent as cyanamide | elevation of blood AcH over controls at 16 hours (AlDH [2]): more than 50 fold | duration of blood AcH elevation over 72-hour time course (in words) (AlDH [3]): gradually fell | time at which blood AcH elevation reached maximum (AlDH [3]): around 5 hours

N#CN [Cyanamide, cyanamide]
elevation of blood AcH over drug-free controls at 3 hours (AlDH [2]): 150 fold | elevation of blood AcH over controls at 16 hours (AlDH [2]): more than 25 fold | duration of blood AcH elevation over 72-hour time course (in words) (AlDH [3]): fell rapidly almost to control values at 36 hours | time at which blood AcH elevation reached maximum (AlDH [3]): ≤ 2 h | administered cyanamide eliminated as acetylcyanamide in the urine [6]: At least 94% | AlDH inhibitory activity in vitro ([4]; listed as cyanamide): devoid of AlDH inhibitory activity in vitro | AlDH inhibitory activity in vitro [4]: does not inhibit AlDH

N#CNC(=O)[C@@H]1CCC(=O)N1C(=O)OCc1ccccc1 [Compound 13, N-Cbz-L-pyroglutamylcyanamide]
potency in elevating ethanol-derived blood AcH (in words) (AlDH [2]): not nearly as potent as the other prodrugs

CCCC(=O)NC#N [Compound 5, n-Butyrylcyanamide]
potency in elevating ethanol-derived blood AcH (in words) (AlDH [2]): even more potent than cyanamide itself | duration of action / blood AcH at 16 hours (in words) (AlDH [2]): short-acting | elevation of blood AcH over drug-free controls at 3 hours (AlDH [2]): 170 fold | elevation of blood AcH over controls at 16 hours (AlDH [2]): approximately 20 fold | stability on standing [7]: decomposes on standing even at 5 °C after prolonged periods

CC(C)C[C@H](NC(=O)[C@@H]1CCC(=O)N1)C(=O)NC#N [Compound 14, L-Pyroglutamyl-L-leucylcyanamide]
potency in elevating ethanol-derived blood AcH (in words) (AlDH [2]): not nearly as potent as the other prodrugs
